Legend:
[1] = test system: Vaccinia virus (strain Copenhagen); settings: for IC50: read-out: IC50 Vaccinia
[2] = test system: Vero cell culture

Row | Compound | SI (CC50/IC50) Vaccinia [1] | CC50 [2] [µM] | IC50 [1] [µM] | times less active than the reference compound tecovirimat [1]
1 | C/C(=N\NC(=O)c1ccc(C(F)(F)F)cc1)C12CC3CC(CC(C3)C1)C2 [Compound 31, N^1-(1-(Adamantan-1-yl)ethylidene)-4-(trifluoromethyl)benzohydrazide] | 10.55/>26 | – | – | –
2 | O=C(NNC(=O)C12CC3CC(CC(C3)C1)C2)c1ccc(C(F)(F)F)cc1 [Compound 16, N^1-(4-(Trifluoromethyl)benzoyl)adamantane-1-carbohydrazide] | 1.07/>255 | > 273 | – | –
3 | N^1-(5-Chloroadamantan-2-yl)-4-(trifluoromethyl)benzohydrazide [Compound 28] | 3.52/61 | ~215 | 3.52 | –
4 | CN(C(=O)c1ccc(C(F)(F)F)cc1)C12CC3CC(CC(C3)C1)C2 [Compound 7, N-(Adamantan-1-yl)-N-methyl-4-(trifluoromethyl)benzamide] | 4.85/>61 | – | – | –
5 | O=C(NCC12CC3CC(CC(C3)C1)C2)c1ccc(Br)cc1 [Compound 9, N-((Adamantan-1-yl)methyl)-4-bromobenzamide] | 8.3/28 | – | – | –
6 | 3-Ethyl-N^1-(4-(trifluoromethyl)benzoyl)adamantane-1-carbohydrazide [Compound 18] | 12.53/3.75 | 47 | 12.5 | –
7 | N^1-(Adamantan-1-yl)-4-(trifluoromethyl)benzohydrazide [Compound 35] | – | 2.8 | – | –
8 | O=C(NC1C2CC3CC(C2)CC1C3)c1ccc(Br)cc1 (centres unmarked) [Compound 11, N-(Adamantan-2-yl)-4-bromobenzamide] | 3.06/>98 | – | – | –
9 | N^1-(3-Ethyladamantan-1-yl)-4-(trifluoromethyl)benzohydrazide [Compound 36] | 1.66/1.5 | 2.5 | 1.66 | –
10 | CCC12CC3CC(C1)CC(NC(=O)c1ccc(C(F)(F)F)cc1)(C3)C2 [Compound 6, N-(3-Ethylаdamantan-1-yl)-4-(trifluoromethyl)benzamide] | 4.1/>68 | – | – | –
11 | O=C(NC12CC3CC(CC(C3)C1)C2)c1ccc(C(F)(F)F)cc1 [Compound 5, N-(Adamantan-1-yl)-4-(trifluoromethyl)benzamide] | – | – | – | 50
12 | 3,5-Dimethyl-N^1-(4-(trifluoromethyl)benzoyl)adamantane-1-carbohydrazide [Compound 17] | 30.9/>8.2 | > 254 | 30.9 | –
13 | N^1-(Adamantan-2-yl)-4-(trifluoromethyl)benzohydrazide [Compound 27] | 2.8/>103 | > 296 | 2.8 | –
14 | O=C(NNC(=O)c1ccc(C(F)(F)F)cc1)NC12CC3CC(CC(C3)C1)C2 [Compound 20, N^1-(Adamantan-1-yl)-2-(4-(trifluoromethyl)benzoyl)hydrazine-1-carboxamide] | 36.26/2.6 | – | – | –
15 | CC12CC3CC(C1)CC(NC(=O)c1ccc(C(F)(F)F)cc1)(C3)C2 [Compound 37] | 8.98/>33 | – | – | –
16 | (rac)-N^1-(1-(Adamantan-1-yl)ethyl)-4-(trifluoromethyl)benzohydrazide [Compound 32] | 0.515/27 | 14 | 0.515 | –

From paper PMC9533879 (European Journal of Medicinal Chemistry, 2021)
